From patent US20150165029A1, “THERAPEUTIC COMPOSITIONS” (CUBIST PHARMACEUTICALS, INC., priority 2005, published 2015)
Like-named read-outs stand apart in the source and are kept apart here.

Key:
[1] = Rat intraduodenal capsule model, % bioavailability; details: for Drug plus enhancer % BA: 4:1 (enhancer:drug), ceftriaxone/carrageenan complex+Laureth-12, daptomycin carrageenan complex+Ceteth-15, CMPD 1+Ceteth-15, cidofovir, meropenem, caspofungin+Ceteth-12; for bioavailability: male, Sprague Dawley, rat, plasma
Experimental: (§1) Male Sprague Dawley rats weighing approximately 250 g with free access to water were fasted overnight. These rats were anesthetized with 40 mg/kg pentobarbital via jugular vein catheter. The small intestine was exposed by a ventral midline incision. A small incision was made into the duodenum and a #9el capsule was inserted into the lumen of the small intestine. The duodenum and the midline incisions were sutured closed. The rats regained consciousness in 30-90 minutes. Blood samples were taken from the jugular vein catheter at 0, 15, 30 and 60 minutes and 2, 3, 4 and 6 hours. Food was returned at 1 hour post surgery. Blood samples were collected in heparinized tubes and subsequently centrifuged. The plasma was stored at −20 C in heparinized tubes. The rats regained consciousness in 30-90 minutes. After the 6 hr blood sample, the rat was euthanized and a necropsy was performed to determine accuracy and integrity of the surgery. The duodenum was examined for blockage, leakage and any evidence of inflammation or irritation at the site of the capsule implantation.

[2] = Rat intraduodenal capsule model, Cmax with different enhancers (Example 6); details: ID in rats, Cmax normalized to 40 mg/Kg
Experimental: Male Sprague Dawley rats weighing approximately 250 g with free access to water were fasted overnight. These rats were anesthetized with 40 mg/kg pentobarbital via jugular vein catheter. The small intestine was exposed by a ventral midline incision. A small incision was made into the duodenum and a #9el capsule was inserted into the lumen of the small intestine. The duodenum and the midline incisions were sutured closed. The rats regained consciousness in 30-90 minutes. Blood samples were taken from the jugular vein catheter at 0, 15, 30 and 60 minutes and 2, 3, 4 and 6 hours. Food was returned at 1 hour post surgery. Blood samples were collected in heparinized tubes and subsequently centrifuged. The plasma was stored at −20 C in heparinized tubes. […] After the 6 hr blood sample, the rat was euthanized and a necropsy was performed to determine accuracy and integrity of the surgery. The duodenum was examined for blockage, leakage and any evidence of inflammation or irritation at the site of the capsule implantation.
In each instance, the compositions were administered ID in 3 rats, unless otherwise indicated.

[3] = rat, in vivo
Experimental: as §1

[4] = rat, in vivo; cited from earlier work
[5] = without any absorption enhancer; cited from earlier work

Row | Compound | Drug plus enhancer % BA ([1]; ID, rats) | bioavailability [1] | % bioavailability [3] | other results
1 | CC[C@H](C)C[C@H](C)CCCCCCCCC(=O)N[C@H]1C[C@@H](O)[C@@H](NCCN)NC(=O)[C@@H]2[C@@H](O)CCN2C(=O)[C@H]([C@H](O)CCN)NC(=O)[C@H]([C@H](O)[C@@H](O)c2ccc(O)cc2)NC(=O)[C@@H]2C[C@@H](O)CN2C(=O)[C@H]([C@@H](C)O)NC1=O [Caspofungin, caspofungin] | <5% | < 1% |  | 
2 | CN(/N=C/C1=C(C(=O)O)N2C(=O)C(NC(=O)/C(=N\OCF)c3nsc(N)n3)[C@H]2SC1)C(=N)N1CCNCC1 (stereo partly shown) [CMPD 1, 7-(((5-amino-1,2,4-thiadiazol-3-yl)-(Z)-(fluoromethoxyimino)acetyl)amino)-3(E)-((imino-1-piperazinylmethyl)-methylhydrazono)methyl-3-cephem-4-carboxylic acid] | 30% |  |  | Cmax Mean (±SD) ([2]; enhancer Capmul C10, enhancer:drug 4:1): 7 (7) μg/mL; Cmax Mean (±SD) ([2]; enhancer Gelmul 90, enhancer:drug 4:1): 13 (8) μg/mL; Cmax Mean (±SD) ([2]; enhancer Laureth-12, enhancer:drug 4:1): 22 (4) μg/mL; Cmax Mean (±SD) ([2]; enhancer Sodium Laurate, enhancer:drug 4:1): 7 (1) μg/mL
3 | Beheneth-20 |  |  | 7 (5) % | 
4 | Laureth-23 |  |  | 10 (4) % | 
5 | Laureth-9 |  |  | 60 (19) % | 
6 | C[C@@H](O)[C@H]1C(=O)N2C(C(=O)O)=C(S[C@@H]3CN[C@H](C(=O)N(C)C)C3)[C@H](C)[C@H]12 [Meropenem, meropenem] | 28% | 1% |  | 
7 | Nc1ccn(C[C@@H](CO)OCP(=O)(O)O)c(=O)n1 [Cidofovir, cidofovir] | 44% | 2% |  | 
8 | CCCCCCCCCC(=O)N[C@@H](Cc1c[nH]c2ccccc12)C(=O)N[C@H](CC(N)=O)C(=O)N[C@@H](CC(=O)O)C(=O)N[C@@H]1C(=O)NCC(=O)N[C@@H](CCCN)C(=O)N[C@@H](CC(=O)O)C(=O)N[C@H](C)C(=O)N[C@@H](CC(=O)O)C(=O)NCC(=O)N[C@H](CO)C(=O)N[C@@H]([C@H](C)CC(=O)O)C(=O)N[C@@H](CC(=O)c2ccccc2N)C(=O)O[C@@H]1C [Daptomycin, daptomycin, reference compound] |  |  |  | oral bioavailability of drug only (footnote) [4]: poor oral bioavailability; Drug plus enhancer % BA [3]: 44^2%
9 | CO/N=C(\C(=O)N[C@@H]1C(=O)N2C(C(=O)O)=C(CSc3nc(=O)c(=O)[nH]n3C)CS[C@H]12)c1csc(N)n1 [Ceftriaxone, ceftriaxone] | 83^2% |  |  | Drug only % BA ([1]; without POE alkyl ether enhancer, ID, rats): 2%; oral bioavailability [5]: 0-5%
